Data set [1] in a line: Solubility of CAI with Bis-MPA hyperbranched polyester or PEG combination at pH 7.4 (Experimental Example 9). It counts as physicochemical. The following applies: pH 7.4, 0.5% Timolol, 5% 3rd BMPA-HP. The protocol:
Secondly, the effective volume of 5% (w/v) BMPA-HP solution was diluted appropriately to make up the exact concentrations described in Table 18. […] After stirring, the solution was sonicated for 5 minutes. […] The filtrates were analyzed for CAI using UPLC with the same condition as EXPERIMENTAL EXAMPLE 1.

The conditions of data set [2]: pH 7.4, 0.5% (w/v) Timolol, 5% (w/v) HP (Boltorn W3000).
Protocol: The emulsion was prepared by slowing dispersing water to the weighed amount of waxed Boltorn® W3000 to make 5% (w/v) emulsion with continuous stirring and heating at 60-70° C. for at least 30 minutes, followed by continuous vigorous stirring for an additional 15 hours, to obtain a homogeneous emulsion mixture in a flask.
10 mM phosphate buffer was added to the appropriately weighed mass of solid active ingredients and stirred thoroughly for 15 minutes. Secondly, the effective volume of 5% (w/v) HP emulsion solution was diluted appropriately to make up the exact concentrations described in Table 13. The sample test emulsion solutions were then stirred for 10 minutes at room temperature (with heating up to 60° C. for 5 minutes). After stirring, the emulsion solution was sonicated for 5 minutes. After allowing the complete emulsion of all the active and non-active ingredients, the pH was adjusted to 7.4 by using 1 M NaOH, and additional buffer was added to make up the exact compositions in Table 13. With the adjustment of the pH, the emulsion solutions were further equilibrated by stirring for an additional 15 hours or more at room temperature. The pH of all the sample emulsion solutions was measured again to confirm the final desired pH of 7.4.
For data set [3] the following is noted: cited from earlier work; for pKa (amine group): protonated secondary amine (Dorzolamide), amine (Brinzolamide); for pKa (sulfonamide group): sulfonamide (Dorzolamide), primary sulfonamide (Brinzolamide).
A further data set can be described thus: physchem. The data set is classed as physicochemical. The following applies: pH 7, aqueous with cosolvent or surfactant or cyclodextrin, thermodynamic from solid. The method, then:
After allowing the suspensions to equilibrate at room temperature for additional 30 minutes, the suspension solutions were then sonicated for 10 min and finally filtered through 0.45 μm syringe filters.

Another data set deals with isolated rabbit cornea. The following applies: pH 7.4.
The subject of data set [4] is intact rabbit corneas.
Description: These suspension solutions were used directly as sample donor solutions for the cornea permeation study. In order to determine the solubility, the suspensions were filtered through 0.45 μm syringe filters.
Three male rabbits (New Zealand) weighing 2 to 3 kg. Immediately after sacrifice by an overdose of inhaler isoflurane, the eyes were enucleated, and the corneas were separated for use in the permeation experiments.
Data set [5] in a line: pH-solubility of Dorzolamide with hyperbranched polymer and PEG (Experimental Example 1). The data set is classed as physicochemical. The following applies: 0.1% (w/v) phosphate buffer, FIG. 1. The protocol: Similar suspensions were also prepared in aqueous solution containing different concentrations of different HP and PEG with a molecular weight of 8000. A combination of Polysorbate 80 and PEG 8000 was also attempted. The pH was measured accurately with micro-pH electrode (Thermo Scientific). The desired pH was adjusted using either 1 M NaOH or 1 M HCl. […] After allowing the suspensions to equilibrate at room temperature for an additional 30 minutes, the suspension solutions were then sonicated for 10 minutes and finally filtered through 0.45 μm syringe filters.

Data set [6] has as its system intact rabbit corneas. The source holds these as a separate data set.
Protocol: 10 mM phosphate buffer was added to the appropriately weighed mass of the solid active ingredients, and stirred thoroughly for 15 minutes. […] The three test solutions were then stirred for 10 minutes at room temperature (with heating up to 60° C. for 5 minutes). After stirring, the solution was sonicated for 5 minutes. After allowing the complete dilution of all the active and non-active ingredients, the pH was adjusted to either 7.4 or 5.65 by using 1 M NaOH or 1 M HCl, and additional buffer was added to make up the exact compositions in the Table 15. With the adjustment of pH, the appearance was noted as per Table 14, and the formulations were further equilibrated by stirring for an additional 15 hours or more at room temperature. The pH of the all sample solutions was measured again to confirm the final desired pH. These formulations were used directly as sample donor solutions for the cornea permeation study.
Data set [7] can be described thus: Aqueous solubility of Dorzolamide in the presence of Timolol with HP, PEG, Polysorbate 80 (Experimental Example 3). It counts as physicochemical. The protocol: The final pH was adjusted to 5.65 with 1 M NaOH after addition of HP (sample 1). The combination of different molecular weight PEG and Polysorbate 80 at pH 5.65 as per Table 3 were also attempted. […] After allowing the suspensions to equilibrate at room temperature for an additional 30 minutes, the suspension solutions were then sonicated for 10 minutes and finally filtered through 0.45 μm syringe filters.

For data set [8], the system named is intact rabbit corneas. The following applies: for enhancement of corneal permeation rate: male, New Zealand, rabbit, 180 min, pH 5.65.
Protocol: The samples were filtered by 0.45 μm filter syringe. The initial concentration of both the samples was determined by UPLC analysis.
Three male rabbits (New Zealand) weighing 3-4 pounds. The age of the rabbits was 11-12 weeks. Immediately after sacrifice by an overdose of carbon dioxide gas, the eyes were enucleated, saline washed, and the corneas were separated for the use in permeation experiments. Each cornea was rinsed with freshly prepared receptor solution (Table 4) to remove excess stain. The six intact and fresh corneas were fixed between clamped donor and receptor compartments of an all glass side-by-side diffusion cell in such a way that its epithelial surface faces the donor compartment.
The corneal area available for permeation was 0.211 cm^2. The receptor compartment was filled with freshly prepared receptor solution at pH 7.2, as per the composition described in Table 4. An aliquot (5 mL) of sample #1 was placed on the two intact corneas, and the opening of the donor cells was sealed with a glass cover slip. After 10 minutes of applying sample #1, an aliquot (5 mL) of sample #2 was applied on the next two intact corneas. Again, after 10 minutes, sample #3 aliquot (5 mL) was applied on the remaining two intact corneas. The receptor fluid (5 mL in each receptor cell) was kept at constant temperature of 34° C. using constant stirring through water jacket in all the six cases. At predetermined time intervals of 10, 20, 40, 60, 80, 100, 120, 140, 160, and 180 minutes, 200 μL samples were withdrawn from the receptor solution. Thereafter, the same amount of the phosphate buffer solution was added to the receptor cell. The drug concentrations were assayed by UPLC.
At the end of the experiment, each cornea (free from adhering sclera) was weighed after soaking in de-ionized water. The wet cornea was dried overnight in oven, and reweighed. From the difference of weights, corneal hydration was calculated. […] The parameters that were calculated are as follows:

Values after ≈ are worked out from the molar mass of the structure shown. Where two headings read alike, the source gives them in different places. A value given as a limit tells only on which side of the number the result lay.

Description for isolated rabbit cornea: The permeability coefficient is inversely proportional to the initial concentration of the drug in the donor solution.

For the compound `CCN[C@H]1CN(CCCOC)S(=O)(=O)c2sc(S(N)(=O)=O)cc21` [Brinzolamide], the solubility result is given as “about 1 % (w/v)” in [1] and “about 2 % (w/v)” in data set [2]. In addition, the “pKa (amine group)” value in [3] was 5.9. In addition, the “pKa (sulfonamide group)” value in data set [3] is given as 8.4. This compound gave a solubility at 30 min in the data set “physchem” of approximately 11 mg/mL (≈ 28.7 mM).
Regarding `CCN[C@H]1C[C@H](C)S(=O)(=O)c2sc(S(N)(=O)=O)cc21` [Dorzolamide], the “cumulative amount permeated compared to the market product” value in the data set on isolated rabbit cornea is “almost comparable”. Besides, the “diffusion coefficient on addition of HP” value with intact rabbit corneas [4] is on record as “did not change significantly”. Also, the “pH-solubility profile (aqueous solubility vs pH)” value in data set [5] is on record as “reaches a bottom at pH 7”. Further, in the data set with intact rabbit corneas [6], the “diffusion coefficient on addition of HP” value was “did not change significantly”. Moreover, in [3], the “pKa (amine group)” value is reported as 6.35 and the “pKa (sulfonamide group)” value was 8.5. Also, the thermodynamic solubility at 30 min in [7] (aqueous buffer, thermodynamic from solid, pH 7, 10 mM phosphate buffer, no additives) is less than 5 mg/mL. In the data set with intact rabbit corneas [8], the “diffusion coefficient on addition of HP and Polysorbate 80” value was “did not change significantly”; the “enhancement of corneal permeation rate” value was 25-30%.
`CC(C)(C)NC[C@H](O)COc1nsnc1N1CCOCC1` [Timolol]: the “cumulative amount permeated relative to the market product” value with isolated rabbit cornea (male, New Zealand, rabbit, 180 min) was “more than 2 times”. Besides, the “diffusion coefficient on addition of HP” value in the data set on intact rabbit corneas [4] was “did not change significantly”. Besides, the “diffusion coefficient on addition of HP” value in the data set on intact rabbit corneas [6] is recorded as “did not change significantly”. Moreover, the “cumulative amount permeated relative to control formulation at similar pH with no additives” value with intact rabbit corneas [6] (male, New Zealand, rabbit, 180 min, pH 7.4) is given as approximately 2 times. Moreover, the “solubility of Timolol with the addition of additives” value in data set [7] (pH 5.65 and pH 7, samples containing 0.5% w/v Timolol) is “did not change”. Moreover, in the data set with intact rabbit corneas [8], the “diffusion coefficient on addition of HP and Polysorbate 80” value is on record as “did not change significantly”; the “enhancement of corneal permeation rate” value is listed as 25-30%.

What is called solubility is the dissolved amount per volume that the medium holds. What is called solubility (thermodynamic) is the concentration in solution at equilibrium with solid.

Values taken from patent US20130053374A1, “OPHTHALMIC COMPOSITION” (priority 2010, published 2013).
